Assay type in all cases: cell-based, Diaphorina citri
Assay [1] concerns neuron 6C (rhinarial plate on flagellomere 6). In words: single-sensillum electrophysiology, odor response of neuron 6C. For response to ultra-prolonged activators, 6C: key: 0, no response; +, >50 spikes/second; ++, >100 spikes/second; +++, >150 spikes/second. Conditions: for odor response (frequency of action potentials during stimulus minus baseline), 6C: Table 1, odor diluted to 1%, 50 μL in cartridge.
Assay [2] deals with neuron 2B (rhinarial plate on flagellomere 2). In words: single-sensillum electrophysiology, odor response of neuron 2B. For response to ultra-prolonged activators, 2B: key: 0, no response; +, >50 spikes/second; ++, >100 spikes/second; +++, >150 spikes/second. Conditions: for odor response (frequency of action potentials during stimulus minus baseline), 2B: Table 1, odor diluted to 1%, 50 μL in cartridge.
The subject of assay [3] is neuron 7B (rhinarial plate on flagellomere 7). Conditions: for odor response (frequency of action potentials during stimulus minus baseline), 7B: Table 1, odor diluted to 1%, 50 μL in cartridge.
Assay [4] relates to neuron 6B (rhinarial plate on flagellomere 6). In words: single-sensillum electrophysiology, odor response of neuron 6B. Conditions: for odor response (frequency of action potentials during stimulus minus baseline), 6B: Table 1, odor diluted to 1%, 50 μL in cartridge.
The subject of assay [5] is neuron 6A (rhinarial plate on flagellomere 6). Description: single-sensillum electrophysiology, odor response of neuron 6A. Conditions: for odor response (frequency of action potentials during stimulus minus baseline), 6A: Table 1, odor diluted to 1%, 50 μL in cartridge.
Assay [6] concerns neuron 4C (rhinarial plate on flagellomere 4). Description: single-sensillum electrophysiology, odor response of neuron 4C. Conditions: for odor response (frequency of action potentials during stimulus minus baseline), 4C: Table 1, odor diluted to 1%, 50 μL in cartridge.
Assay [7] concerns neuron 7C (rhinarial plate on flagellomere 7). Description: single-sensillum electrophysiology, odor response of neuron 7C. Conditions: for odor response (frequency of action potentials during stimulus minus baseline), 7C: Table 1, odor diluted to 1%, 50 μL in cartridge.
In assay [8] the test system is neuron 7A (rhinarial plate on flagellomere 7). Description: single-sensillum electrophysiology, odor response of neuron 7A. For all read-outs here: key: 0, no response; +, >50 spikes/second; ++, >100 spikes/second; +++, >150 spikes/second. Conditions: for odor response (frequency of action potentials during stimulus minus baseline), 7A: Table 1, odor diluted to 1%, 50 μL in cartridge.
Assay [9] deals with neuron 2A (rhinarial plate on flagellomere 2). In words: single-sensillum electrophysiology, odor response of neuron 2A. For all read-outs here: key: 0, no response; +, >50 spikes/second; ++, >100 spikes/second; +++, >150 spikes/second. Conditions: for odor response (frequency of action potentials during stimulus minus baseline), 2A: Table 1, odor diluted to 1%, 50 μL in cartridge.
Assay [10] deals with neuron 2C (rhinarial plate on flagellomere 2). Description: single-sensillum electrophysiology, odor response of neuron 2C. Conditions: for odor response (frequency of action potentials during stimulus minus baseline), 2C: Table 1, odor diluted to 1%, 50 μL in cartridge.
For assay [11], the system named is neuron 4B (rhinarial plate on flagellomere 4). Conditions: for odor response (frequency of action potentials during stimulus minus baseline), 4B: Table 1, odor diluted to 1%, 50 μL in cartridge.
The test system of assay [12] is neuron 4A (rhinarial plate on flagellomere 4). Description: single-sensillum electrophysiology, odor response of neuron 4A. Conditions: for odor response (frequency of action potentials during stimulus minus baseline), 4A: Table 1, odor diluted to 1%, 50 μL in cartridge.
[13] abbreviates: Table 3, 10^−2 in paraffin oil, 50 μL, odor puff of 0.5 sec.

`CC(=O)CCC=C(C)C` [6-methyl-5-hepten-2-one]: the “odor response (frequency of action potentials during stimulus minus baseline), 6C” value in [1] was 0. Also, the “odor response (frequency of action potentials during stimulus minus baseline), 2B” value in assay [2] came to 0. For the same compound, the “odor response (frequency of action potentials during stimulus minus baseline), 7B” value in assay [3] was 0. Further, the “odor response (frequency of action potentials during stimulus minus baseline), 6B” value in assay [4] is given as 0. Moreover, the “odor response (frequency of action potentials during stimulus minus baseline), 6A” value in assay [5] was 0. For the same compound, in [6], the “odor response (frequency of action potentials during stimulus minus baseline), 4C” value came to 0. For the same compound, the “odor response (frequency of action potentials during stimulus minus baseline), 7C” value in assay [7] was 0. In assay [8], the “odor response (frequency of action potentials during stimulus minus baseline), 7A” value worked out at 0. For the same compound, the “odor response (frequency of action potentials during stimulus minus baseline), 2A” value in assay [9] was 0. For the same compound, in assay [10], the “odor response (frequency of action potentials during stimulus minus baseline), 2C” value is given as “+ (+, >50 spikes/second)”. Further, the “odor response (frequency of action potentials during stimulus minus baseline), 4B” value in assay [11] turned out to be 0. Moreover, the “odor response (frequency of action potentials during stimulus minus baseline), 4A” value in assay [12] was 0.
Consider `C=C(C)[C@H]1CC=C(C)C(=O)C1` [(+)-carvone], for which, in assay [1], the “odor response (frequency of action potentials during stimulus minus baseline), 6C” value was determined as 0. In assay [1] (setting [13]), the “response to ultra-prolonged activators, 6C” value came to 0. The “odor response (frequency of action potentials during stimulus minus baseline), 2B” value in assay [2] is on record as 0. For the same compound, in [2] (setting [13]), the “response to ultra-prolonged activators, 2B” value turned out to be 0. The “odor response (frequency of action potentials during stimulus minus baseline), 7B” value in assay [3] is reported as 0. Also, the “response to ultra-prolonged activators, 7B” value in [3] (setting [13]) was 0. For the same compound, the “odor response (frequency of action potentials during stimulus minus baseline), 6B” value in assay [4] is “++ (++, >100 spikes/second)”. Also, the “response to ultra-prolonged activators, 6B” value in [4] (setting [13]) is “++ (++, >100 spikes/second)”. In addition, the “odor response (frequency of action potentials during stimulus minus baseline), 6A” value in assay [5] came to 0. Further, the “response to ultra-prolonged activators, 6A” value in assay [5] (setting [13]) worked out at 0. Further, in assay [6], the “odor response (frequency of action potentials during stimulus minus baseline), 4C” value was determined as 0. In addition, the “response to ultra-prolonged activators, 4C” value in assay [6] (setting [13]) was 0. The “odor response (frequency of action potentials during stimulus minus baseline), 7C” value in [7] worked out at 0. Also, the “response to ultra-prolonged activators, 7C” value in assay [7] (setting [13]) was found to be 0. Further, in [8], the “odor response (frequency of action potentials during stimulus minus baseline), 7A” value is 0. The “response to ultra-prolonged activators, 7A” value in [8] (setting [13]) was 0. For the same compound, the “odor response (frequency of action potentials during stimulus minus baseline), 2A” value in assay [9] was found to be 0. For the same compound, in assay [9] (setting [13]), the “response to ultra-prolonged activators, 2A” value was 0. In addition, the “odor response (frequency of action potentials during stimulus minus baseline), 2C” value in [10] amounted to 0. In addition, the “response to ultra-prolonged activators, 2C” value in assay [10] (setting [13]) is on record as 0. The “odor response (frequency of action potentials during stimulus minus baseline), 4B” value in [11] was “++ (++, >100 spikes/second)”. Besides, in assay [11] (setting [13]), the “response to ultra-prolonged activators, 4B” value is on record as “++ (++, >100 spikes/second)”. For the same compound, in assay [12], the “odor response (frequency of action potentials during stimulus minus baseline), 4A” value was determined as 0. Also, the “response to ultra-prolonged activators, 4A” value in assay [12] (setting [13]) was found to be 0.
On to `CCC/C=C/C=O` [E2-hexenal], for which, in assay [1], the “odor response (frequency of action potentials during stimulus minus baseline), 6C” value is 0. The “odor response (frequency of action potentials during stimulus minus baseline), 2B” value in [2] was 0. Besides, the “odor response (frequency of action potentials during stimulus minus baseline), 7B” value in assay [3] was 0. In assay [4], the “odor response (frequency of action potentials during stimulus minus baseline), 6B” value is “+ (+, >50 spikes/second)”. Also, the “odor response (frequency of action potentials during stimulus minus baseline), 6A” value in assay [5] came out at 0. Also, in assay [6], the “odor response (frequency of action potentials during stimulus minus baseline), 4C” value is recorded as 0. Besides, the “odor response (frequency of action potentials during stimulus minus baseline), 7C” value in assay [7] came out at 0. Moreover, the “odor response (frequency of action potentials during stimulus minus baseline), 7A” value in [8] stood at 0. For the same compound, the “odor response (frequency of action potentials during stimulus minus baseline), 2A” value in assay [9] is 0. Moreover, the “odor response (frequency of action potentials during stimulus minus baseline), 2C” value in [10] is listed as “++ (++, >100 spikes/second)”. The “odor response (frequency of action potentials during stimulus minus baseline), 4B” value in assay [11] was “+ (+, >50 spikes/second)”. Also, in [12], the “odor response (frequency of action potentials during stimulus minus baseline), 4A” value was found to be 0.
Take `C=C/C(C)=C/CC=C(C)C` [E-β-Ocimene]: the “odor response (frequency of action potentials during stimulus minus baseline), 6C” value in [1] is on record as 0. In assay [2], the “odor response (frequency of action potentials during stimulus minus baseline), 2B” value is recorded as 0. Also, the “odor response (frequency of action potentials during stimulus minus baseline), 7B” value in assay [3] came out at 0. Further, in assay [4], the “odor response (frequency of action potentials during stimulus minus baseline), 6B” value was found to be 0. In addition, the “odor response (frequency of action potentials during stimulus minus baseline), 6A” value in [5] is on record as 0. In addition, the “odor response (frequency of action potentials during stimulus minus baseline), 4C” value in [6] is given as 0. In [7], the “odor response (frequency of action potentials during stimulus minus baseline), 7C” value came to 0. Besides, the “odor response (frequency of action potentials during stimulus minus baseline), 7A” value in [8] was found to be 0. For the same compound, the “odor response (frequency of action potentials during stimulus minus baseline), 2A” value in assay [9] was determined as 0. For the same compound, in assay [10], the “odor response (frequency of action potentials during stimulus minus baseline), 2C” value is “++ (++, >100 spikes/second)”. In assay [11], the “odor response (frequency of action potentials during stimulus minus baseline), 4B” value worked out at 0. Further, in assay [12], the “odor response (frequency of action potentials during stimulus minus baseline), 4A” value was 0.
With `CCC/C=C\CO` [Z2-hexanol], the “odor response (frequency of action potentials during stimulus minus baseline), 6C” value in assay [1] is listed as 0. For the same compound, the “odor response (frequency of action potentials during stimulus minus baseline), 2B” value in assay [2] was 0. For the same compound, the “odor response (frequency of action potentials during stimulus minus baseline), 7B” value in assay [3] worked out at 0. Besides, the “odor response (frequency of action potentials during stimulus minus baseline), 6B” value in [4] is “+ (+, >50 spikes/second)”. For the same compound, the “odor response (frequency of action potentials during stimulus minus baseline), 6A” value in assay [5] worked out at 0. For the same compound, the “odor response (frequency of action potentials during stimulus minus baseline), 4C” value in assay [6] was 0. Besides, the “odor response (frequency of action potentials during stimulus minus baseline), 7C” value in assay [7] stood at 0. The “odor response (frequency of action potentials during stimulus minus baseline), 7A” value in [8] is recorded as 0. For the same compound, the “odor response (frequency of action potentials during stimulus minus baseline), 2A” value in assay [9] is listed as 0. The “odor response (frequency of action potentials during stimulus minus baseline), 2C” value in assay [10] is given as 0. In [11], the “odor response (frequency of action potentials during stimulus minus baseline), 4B” value is “+ (+, >50 spikes/second)”. In addition, the “odor response (frequency of action potentials during stimulus minus baseline), 4A” value in assay [12] came out at 0.
Turning to `CC/C=C\CC=O` [Z3-hexenal], in [1], the “odor response (frequency of action potentials during stimulus minus baseline), 6C” value came to 0. For the same compound, the “odor response (frequency of action potentials during stimulus minus baseline), 2B” value in assay [2] is on record as 0. For the same compound, in [3], the “odor response (frequency of action potentials during stimulus minus baseline), 7B” value is reported as “+ (+, >50 spikes/second)”. Also, the “odor response (frequency of action potentials during stimulus minus baseline), 6B” value in [4] is listed as 0. For the same compound, the “odor response (frequency of action potentials during stimulus minus baseline), 6A” value in [5] is given as “++ (++, >100 spikes/second)”. For the same compound, the “odor response (frequency of action potentials during stimulus minus baseline), 4C” value in assay [6] was 0. The “odor response (frequency of action potentials during stimulus minus baseline), 7C” value in assay [7] is reported as 0. Also, the “odor response (frequency of action potentials during stimulus minus baseline), 7A” value in assay [8] stood at 0. Besides, in assay [9], the “odor response (frequency of action potentials during stimulus minus baseline), 2A” value is given as 0. The “odor response (frequency of action potentials during stimulus minus baseline), 2C” value in [10] is reported as 0. Also, in assay [11], the “odor response (frequency of action potentials during stimulus minus baseline), 4B” value is listed as 0. For the same compound, the “odor response (frequency of action potentials during stimulus minus baseline), 4A” value in assay [12] is “++ (++, >100 spikes/second)”.
`CC/C=C\CCO` [Z3-hexenol]: the “odor response (frequency of action potentials during stimulus minus baseline), 6C” value in [1] came out at 0. Further, the “odor response (frequency of action potentials during stimulus minus baseline), 2B” value in assay [2] is 0. In assay [3], the “odor response (frequency of action potentials during stimulus minus baseline), 7B” value is 0. The “odor response (frequency of action potentials during stimulus minus baseline), 6B” value in assay [4] is reported as “+ (+, >50 spikes/second)”. Further, in assay [5], the “odor response (frequency of action potentials during stimulus minus baseline), 6A” value was found to be 0. In assay [6], the “odor response (frequency of action potentials during stimulus minus baseline), 4C” value stood at 0. In assay [7], the “odor response (frequency of action potentials during stimulus minus baseline), 7C” value amounted to 0. For the same compound, the “odor response (frequency of action potentials during stimulus minus baseline), 7A” value in assay [8] worked out at 0. Moreover, in assay [9], the “odor response (frequency of action potentials during stimulus minus baseline), 2A” value is recorded as 0. For the same compound, the “odor response (frequency of action potentials during stimulus minus baseline), 2C” value in assay [10] is recorded as 0. For the same compound, in [11], the “odor response (frequency of action potentials during stimulus minus baseline), 4B” value is recorded as “+ (+, >50 spikes/second)”. Also, the “odor response (frequency of action potentials during stimulus minus baseline), 4A” value in assay [12] is reported as 0.

The values above are taken from US20180055032A1, “ODORS FOR PSYLLID TRAPPING, REPELLING AND CONTROL” (The Regents of the University of California, priority 2011, published 2018).
